Results reported in PubChem BioAssay AID298 (DTP/NCI, 2004).
Values joined by “and” are separate entries in the source; they are usually repeats but may differ in a detail not shown here. Equal values may be shown once. Records with an inconclusive call do not appear.

Test system: MX-1 breast xenograft, intrarenal, nude mice, tumor weight
Assay: NCI In Vivo Anticancer Drug Screen. Data for tumor model Human Mammary Carcinoma MX-1 Xenograft (intrarenal inoculation) in NU/NU BALB/C (nude) mice
Details: endpoint: mean tumor weight change, higher = larger tumour
In short: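 Mice w/ transplanted tumors, drug vs vehicle; endpoint survival or tumor size; value = T/C.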

[1] = dose: 150.0 mg/kg/injection, schedule: Q04DX003 (ip), vehicle: Klucel (hydroxypropylcellulose) (HPC)
[2] = dose: 150.0 mg/kg/injection, schedule: Q04DX003 (ip), vehicle: saline with Tween-80
[3] = dose: 300.0 mg/kg/injection, schedule: Q04DX003 (ip), vehicle: saline with Tween-80
[4] = dose: 600.0 mg/kg/injection, schedule: Q04DX003 (ip), vehicle: saline with Tween-80
[5] = dose: 25.0 mg/kg/injection, schedule: Q04DX003 (ip), vehicle: saline with Tween-80
[6] = dose: 50.0 mg/kg/injection, schedule: Q04DX003 (ip), vehicle: saline with Tween-80

## C=C(C)C1C2CC3(C)C4(CO4)C4OC4C3(O)C1C(=O)O2 (stereo not given)
dose: 0.15 mg/kg/injection, schedule: Q04DX003 (ip), vehicle: Klucel (hydroxypropylcellulose) (HPC)
  T/C: 116 % of control
dose: 0.31 mg/kg/injection, schedule: Q04DX003 (ip), vehicle: Klucel (hydroxypropylcellulose) (HPC)
  T/C: 86 % of control
dose: 0.62 mg/kg/injection, schedule: Q04DX003 (ip), vehicle: Klucel (hydroxypropylcellulose) (HPC)
  T/C: 106 % of control

## C=CCOc1cc2c(cc1C(C)c1ccc(OC)cc1)OCO2 (stereo not given)
dose: 75.0 mg/kg/injection, schedule: Q04DX003 (ip), vehicle: Klucel (hydroxypropylcellulose) (HPC)
  T/C: 73 % of control
[1]
  T/C: 91 % of control
dose: 300.0 mg/kg/injection, schedule: Q04DX003 (ip), vehicle: Klucel (hydroxypropylcellulose) (HPC)
  T/C: 94 % of control

## CC(=O)C(Cl)C(=O)c1c(C)[nH]n(-c2ccccc2)c1=O (stereo not given)
[1]
  T/C: 103 % of control

## Cc1nnc2ncccn12
dose: 100.0 mg/kg/injection, schedule: Q04DX003 (sc), vehicle: saline
  T/C: 86 % of control
dose: 200.0 mg/kg/injection, schedule: Q04DX003 (sc), vehicle: saline
  T/C: 104 % of control

## CC1C(c2ccccc2)OC(N2CCOCC2)C(C)(C)CN1C (stereo not given)
[2]
  T/C: 112 % of control
[3]
  T/C: 101 % of control
[4]
  T/C: 82 % of control

## CSc1cc(=O)n2c3ccccc3c3ccnc1c32
dose: 80.0 mg/kg/injection, schedule: Q04DX003 (sc), vehicle: saline with Tween-80
  T/C: 89 % of control
dose: 160.0 mg/kg/injection, schedule: Q04DX003 (sc), vehicle: saline with Tween-80
  T/C: 26 % of control
dose: 320.0 mg/kg/injection, schedule: Q04DX003 (sc), vehicle: saline with Tween-80
  T/C: 40 % of control

## O=[N+]([O-])c1nccn1CC(O)CO (stereo not given)
dose: 300.0 mg/kg/injection, schedule: Q04DX004 (sc), vehicle: saline
  T/C: 96 % of control
dose: 600.0 mg/kg/injection, schedule: Q04DX004 (sc), vehicle: saline
  T/C: 91 % of control
dose: 2400.0 mg/kg/injection, schedule: Q04DX004 (sc), vehicle: saline
  T/C: 93 % of control

## COc1cc(C2CC(C)(O)Oc3cc4c(cc32)OCO4)cc(OC)c1OC (stereo not given)
[5]
  T/C: 86 % of control
[6]
  T/C: 75 % of control
dose: 100.0 mg/kg/injection, schedule: Q04DX003 (ip), vehicle: saline with Tween-80
  T/C: 73 % of control and 74 % of control
dose: 200.0 mg/kg/injection, schedule: Q04DX003 (ip), vehicle: saline with Tween-80
  T/C: 46 % of control

## Oc1ccc(/C=N/Nc2nnc(N/N=C/c3ccc(O)cc3O)c3ccccc23)c(O)c1
dose: 25.0 mg/kg/injection, schedule: Q04DX003 (ip), vehicle: suspension in saline
  T/C: 50 % of control
dose: 50.0 mg/kg/injection, schedule: Q04DX003 (ip), vehicle: suspension in saline
  T/C: 102 % of control
dose: 100.0 mg/kg/injection, schedule: Q04DX003 (ip), vehicle: suspension in saline
  T/C: 115 % of control

## CCCSc1nc(COC(=O)NC)c(COC(=O)NC)n1C
dose: 30.0 mg/kg/injection, schedule: Q04DX003 (ip), vehicle: saline
  T/C: 74 % of control
dose: 60.0 mg/kg/injection, schedule: Q04DX003 (ip), vehicle: saline
  T/C: 76 % of control
dose: 120.0 mg/kg/injection, schedule: Q04DX003 (ip), vehicle: saline
  T/C: 70 % of control
dose: 240.0 mg/kg/injection, schedule: Q04DX003 (ip), vehicle: saline
  T/C: 26 % of control

## COc1ccc2c(c1)-c1nn(CCCN(C)C)c3ccc([N+](=O)[O-])c(c13)N2
dose: 12.5 mg/kg/injection, schedule: Q04DX003 (ip), vehicle: water
  T/C: 66 % of control and 79 % of control
dose: 25.0 mg/kg/injection, schedule: Q04DX003 (ip), vehicle: water
  T/C: 53 % of control and 56 % of control
dose: 50.0 mg/kg/injection, schedule: Q04DX003 (ip), vehicle: water
  T/C: 19 % of control and 38 % of control and 41 % of control
dose: 100.0 mg/kg/injection, schedule: Q04DX003 (ip), vehicle: water
  T/C: 13 % of control

## COC1C(CO)OC(n2cnc3c(=S)nc(N)[nH]c32)C1O (stereo not given)
dose: 150.0 mg/kg/injection, schedule: Q04DX003 (sc), vehicle: Klucel (hydroxypropylcellulose) (HPC)
  T/C: 105 % of control
dose: 300.0 mg/kg/injection, schedule: Q04DX003 (sc), vehicle: Klucel (hydroxypropylcellulose) (HPC)
  T/C: 48 % of control

## CO[C@@]12[C@@H]3N[C@@H]3CN1C1=C(C(=O)C(NCCc3ccccn3)=C(C)C1=O)[C@@H]2COC(N)=O
dose: 6.25 mg/kg/injection, schedule: Q04DX003 (ip), vehicle: saline with Tween-80
  T/C: -51 % of control
dose: 12.5 mg/kg/injection, schedule: Q04DX003 (ip), vehicle: saline with Tween-80
  T/C: -84 % of control
[5]
  T/C: -92 % of control
[6]
  T/C: -42 % of control

## NC(=S)N/N=C/c1ccc(O)cn1
dose: 100.0 mg/kg/injection, schedule: Q04DX003 (sc), vehicle: saline with Tween-80
  T/C: 88 % of control
dose: 200.0 mg/kg/injection, schedule: Q04DX003 (sc), vehicle: saline with Tween-80
  T/C: 101 % of control
dose: 400.0 mg/kg/injection, schedule: Q04DX003 (sc), vehicle: saline with Tween-80
  T/C: 92 % of control

## C/C(=N\NC(=S)N1CC2CCC(CC2)C1)c1nccs1
dose: 75.0 mg/kg/injection, schedule: Q04DX003 (ip), vehicle: saline with Tween-80
  T/C: 78 % of control

## Cc1c(N)nc(C(CC(N)=O)NCC(N)C(N)=O)nc1C(=O)NC(C(=O)NC(C)C(O)C(C)C(=O)NC(C(=O)NCCc1nc(-c2nc(C(=O)NCCCNC(C)c3ccccc3)cs2)cs1)C(C)O)C(OC1OC(CO)C(O)C(O)C1OC1OC(CO)C(O)C(OC(N)=O)C1O)c1cnc[nH]1 (stereo not given)
dose: 8.0 mg/kg/injection, schedule: Q01DX010 (sc), vehicle: saline
  T/C: 69 % of control
dose: 16.0 mg/kg/injection, schedule: Q01DX010 (sc), vehicle: saline
  T/C: 55 % of control
dose: 32.0 mg/kg/injection, schedule: Q01DX010 (sc), vehicle: saline
  T/C: 43 % of control

## O=C(CCCN1CCC(C(O)c2ccc(F)cc2)CC1)c1ccc(F)cc1 (stereo not given)
[5]
  T/C: 90 % of control
[6]
  T/C: 83 % of control

## N#Cc1c(-c2ccccc2)c(-c2ccccc2)nn(CC(=O)O)c1=O
dose: 100.0 mg/kg/injection, schedule: Q04DX003 (ip), vehicle: distilled water + Tween-80
  T/C: 120 % of control
dose: 200.0 mg/kg/injection, schedule: Q04DX003 (ip), vehicle: distilled water + Tween-80
  T/C: 85 % of control

## Nc1ccc2ccc(N)cc2c1
[2]
  T/C: 75 % of control
[3]
  T/C: 65 % of control

## COc1c(C=O)c2c(c(OC)c1OC)-c1ccc(OC)c(=O)cc1[C@@H](NC(C)=O)CC2
dose: 9.37 mg/kg/injection, schedule: Q04DX003 (sc), vehicle: Klucel (hydroxypropylcellulose) (HPC)
  T/C: 62 % of control
dose: 18.75 mg/kg/injection, schedule: Q04DX003 (sc), vehicle: Klucel (hydroxypropylcellulose) (HPC)
  T/C: 40 % of control
dose: 37.5 mg/kg/injection, schedule: Q04DX003 (sc), vehicle: Klucel (hydroxypropylcellulose) (HPC)
  T/C: 13 % of control

## O=C(/C=C/c1cccnc1)/C=C/c1cccnc1
dose: 50.0 mg/kg/injection, schedule: Q04DX003 (ip), vehicle: Klucel (hydroxypropylcellulose) (HPC)
  T/C: 67 % of control

## Nc1cc2c(cc1Br)-c1c(C(=O)O)cccc1C2O (stereo not given)
dose: 150.0 mg/kg/injection, schedule: Q04DX003 (ip), vehicle: sodium bicarbonate
  T/C: 97 % of control
dose: 300.0 mg/kg/injection, schedule: Q04DX003 (ip), vehicle: sodium bicarbonate
  T/C: 94 % of control
dose: 600.0 mg/kg/injection, schedule: Q04DX003 (ip), vehicle: sodium bicarbonate
  T/C: 101 % of control
dose: 1200.0 mg/kg/injection, schedule: Q04DX003 (ip), vehicle: sodium bicarbonate
  T/C: 92 % of control

## COc1ccc([C@@]23Oc4cc(OC)cc(OC)c4[C@]2(O)[C@H](O)[C@H](C(=O)N(C)C)[C@H]3c2ccccc2)cc1
dose: 2.0 mg/kg/injection, schedule: Q04DX003 (ip), vehicle: Klucel (hydroxypropylcellulose) (HPC)
  T/C: 92 % of control
dose: 4.0 mg/kg/injection, schedule: Q04DX003 (ip), vehicle: Klucel (hydroxypropylcellulose) (HPC)
  T/C: 79 % of control
dose: 8.0 mg/kg/injection, schedule: Q04DX003 (ip), vehicle: Klucel (hydroxypropylcellulose) (HPC)
  T/C: 79 % of control
dose: 16.0 mg/kg/injection, schedule: Q04DX003 (ip), vehicle: Klucel (hydroxypropylcellulose) (HPC)
  T/C: 88 % of control

## CNc1ncn(-c2c(C)cccc2C)c(=O)n1
[2]
  T/C: 92 % of control and 97 % of control
[3]
  T/C: 77 % of control
[4]
  T/C: 25 % of control

## COc1cccc2c1C(=N)c1c(O)c3c(c(O)c1C2=O)C[C@@](O)(C(C)=O)C[C@@H]3OC1CC(N)C(O)C(C)O1 (stereo not given in full)
dose: 4.0 mg/kg/injection, schedule: Q01DX010 (sc), vehicle: water
  T/C: 51 % of control
dose: 8.0 mg/kg/injection, schedule: Q01DX010 (sc), vehicle: water
  T/C: 56 % of control
dose: 16.0 mg/kg/injection, schedule: Q01DX010 (sc), vehicle: water
  T/C: 56 % of control
